Legend:
[1] = molecular target: T1, NMDAR2A expressing HEK cell membranes (Homo sapiens, UniProt Q05586+Q12879); assay: NMDAR agonist assay, [3H]MK-801 binding, NMDAR2A; format: biochemical; set-up: key to NMDAR2A B: log EC50: 0=−; ≥1×10^−9 M (e.g., −8)=+; <1×10^−9 M (e.g., −10)=++; conditions: 50 μM glutamate; for Emax: 0.25 h, read-out: NMDAR2A A: % maximal [3H]MK-801 binding relative to 1 mM glycine; for EC50: read-out: NMDAR2A B: log EC50 (converted)
T1 construct: expressed in transfected cells; host or cells: HEK cells (membrane extract)
Method: (§1) Assays were conducted as described by Moskal et al., “GLYX-13: a monoclonal antibody-derived peptide that acts as an N-methyl-D-aspartate receptor modulator,” Neuropharmacology, 49, 1077-87, 2005. These studies were designed to determine if the test compounds act to facilitate NMDAR activation in NMDAR2A, NMDAR2B, NMDAR2C or NMDAR2D expressing HEK cell membranes as measured by increases in [^3H]MK-801 binding.
(§2) In the assay, 300 μg of NMDAR expressing HEK cell membrane extract protein was preincubated for 15 minutes at 25° C. in the presence of saturating concentrations of glutamate (50 μM) and varying concentrations of test compound (1×10^−15 M-1×10^−7 M), or 1 mM glycine. Following the addition of 0.3 μCi of [^3H]MK-801 (22.5 Ci/mmol), reactions were again incubated for 15 minutes at 25° C. (nonequilibrium conditions). Bound and free [^3H]MK-801 were separated via rapid filtration using a Brandel apparatus.
(§3) In analyzing the data, the DPM (disintegrations per minute) of [^3H]MK-801 remaining on the filter were measured for each concentration of test compound or for 1 mM glycine. The DPM values for each concentration of a ligand (N=2) were averaged. The baseline value was determined from the best fit curve of the DPM values modeled using the GraphPad program and the log(agonist) vs. response(three parameters) algorithm was then subtracted from all points in the dataset. The % maximal [^3H]MK-801 binding was then calculated relative to that of 1 mM glycine: all baseline subtracted DPM values were divided by the average value for 1 mM glycine. The EC50 and % maximal activity were then obtained from the best fit curve of the % maximal [^3H]MK-801 binding data modelled using the GraphPad program and the log(agonist) vs. response(three parameters) algorithm.
(§4) The tables below summarize the results for the wild type NMDAR agonists NMDAR2A, NMDAR2B, NMDAR2C, and NMDAR2D, and whether the compound is not an agonist (−), is an agonist (+), or is a strong agonist (++), where column A is based on the % maximal [^3H]MK-801 binding relative to 1 mM glycine (−=0; <100%=+; and >100%=++); and column B is based on log EC50 values (0=−; ≥1×10^−9 M (e.g., −8)=+; and <1×10^−9 M (e.g., −10)=++).

[2] = molecular target: T2, NMDAR2A expressing HEK cell membranes (Homo sapiens, UniProt Q12879); assay: NMDAR agonist assay, [3H]MK-801 binding, NMDAR2A; format: biochemical; set-up: key to NMDAR2A B: log EC50: 0=−; ≥1×10^−9 M (e.g., −8)=+; <1×10^−9 M (e.g., −10)=++; conditions: 50 μM glutamate; for EC50: read-out: NMDAR2A B: log EC50 (converted)
T2 construct: expressed in transfected cells; host or cells: HEK cells (membrane extract)
Method: as §1, §2, §3, §4

[3] = molecular target: T3, NMDAR2B expressing HEK cell membranes (Homo sapiens, UniProt Q05586+Q13224); assay: NMDAR agonist assay, [3H]MK-801 binding, NMDAR2B; format: biochemical; set-up: key to NMDAR2B B: log EC50: 0=−; ≥1×10^−9 M (e.g., −8)=+; <1×10^−9 M (e.g., −10)=++; conditions: 50 μM glutamate; for Emax: 0.25 h, read-out: NMDAR2B A: % maximal [3H]MK-801 binding relative to 1 mM glycine; for EC50: read-out: NMDAR2B B: log EC50 (converted)
T3 construct: expressed in transfected cells; host or cells: HEK cells (membrane extract)
Method: as §1, §2, §3, §4

[4] = molecular target: T4, NMDAR2B expressing HEK cell membranes (Homo sapiens, UniProt Q13224); assay: NMDAR agonist assay, [3H]MK-801 binding, NMDAR2B; format: biochemical; set-up: key to NMDAR2B B: log EC50: 0=−; ≥1×10^−9 M (e.g., −8)=+; <1×10^−9 M (e.g., −10)=++; conditions: 50 μM glutamate; for EC50: read-out: NMDAR2B B: log EC50 (converted)
T4 construct: expressed in transfected cells; host or cells: HEK cells (membrane extract)
Method: as §1, §2, §3, §4

IV pharmacokinetics = assay: IV pharmacokinetics; set-up: species or system Sprague Dawley rats; conditions: Sprague Dawley, in vivo, rat, 2 mg/kg, normal saline; for Vd: read-out: Vss
Method: Sprague Dawley rats were dosed intravenously using a normal saline formulation containing 2 mg/kg of the compounds identified in the below table. The table below summarizes the results of the IV pharmacokinetics.

[5] = Oral pharmacokinetics (plasma, brain, CSF); format: in vivo, Sprague Dawley rats; conditions: rat, per os, 10 mg/kg; for AUC(0-t) / bioavailability / Tmax / Cmax: Sprague Dawley, plasma, po; for Tmax: normal saline
Method: In another experiment, Sprague Dawley rats were dosed per os using a normal saline formulation containing 10 mg/kg of the compounds identified in the table below. Plasma, brain, and CSF samples were analyzed at various time points over a 24 hour period. The table below summarizes the results of the oral pharmacokinetics.

T4 sequence (Q13224 27-1484, other chains not shown): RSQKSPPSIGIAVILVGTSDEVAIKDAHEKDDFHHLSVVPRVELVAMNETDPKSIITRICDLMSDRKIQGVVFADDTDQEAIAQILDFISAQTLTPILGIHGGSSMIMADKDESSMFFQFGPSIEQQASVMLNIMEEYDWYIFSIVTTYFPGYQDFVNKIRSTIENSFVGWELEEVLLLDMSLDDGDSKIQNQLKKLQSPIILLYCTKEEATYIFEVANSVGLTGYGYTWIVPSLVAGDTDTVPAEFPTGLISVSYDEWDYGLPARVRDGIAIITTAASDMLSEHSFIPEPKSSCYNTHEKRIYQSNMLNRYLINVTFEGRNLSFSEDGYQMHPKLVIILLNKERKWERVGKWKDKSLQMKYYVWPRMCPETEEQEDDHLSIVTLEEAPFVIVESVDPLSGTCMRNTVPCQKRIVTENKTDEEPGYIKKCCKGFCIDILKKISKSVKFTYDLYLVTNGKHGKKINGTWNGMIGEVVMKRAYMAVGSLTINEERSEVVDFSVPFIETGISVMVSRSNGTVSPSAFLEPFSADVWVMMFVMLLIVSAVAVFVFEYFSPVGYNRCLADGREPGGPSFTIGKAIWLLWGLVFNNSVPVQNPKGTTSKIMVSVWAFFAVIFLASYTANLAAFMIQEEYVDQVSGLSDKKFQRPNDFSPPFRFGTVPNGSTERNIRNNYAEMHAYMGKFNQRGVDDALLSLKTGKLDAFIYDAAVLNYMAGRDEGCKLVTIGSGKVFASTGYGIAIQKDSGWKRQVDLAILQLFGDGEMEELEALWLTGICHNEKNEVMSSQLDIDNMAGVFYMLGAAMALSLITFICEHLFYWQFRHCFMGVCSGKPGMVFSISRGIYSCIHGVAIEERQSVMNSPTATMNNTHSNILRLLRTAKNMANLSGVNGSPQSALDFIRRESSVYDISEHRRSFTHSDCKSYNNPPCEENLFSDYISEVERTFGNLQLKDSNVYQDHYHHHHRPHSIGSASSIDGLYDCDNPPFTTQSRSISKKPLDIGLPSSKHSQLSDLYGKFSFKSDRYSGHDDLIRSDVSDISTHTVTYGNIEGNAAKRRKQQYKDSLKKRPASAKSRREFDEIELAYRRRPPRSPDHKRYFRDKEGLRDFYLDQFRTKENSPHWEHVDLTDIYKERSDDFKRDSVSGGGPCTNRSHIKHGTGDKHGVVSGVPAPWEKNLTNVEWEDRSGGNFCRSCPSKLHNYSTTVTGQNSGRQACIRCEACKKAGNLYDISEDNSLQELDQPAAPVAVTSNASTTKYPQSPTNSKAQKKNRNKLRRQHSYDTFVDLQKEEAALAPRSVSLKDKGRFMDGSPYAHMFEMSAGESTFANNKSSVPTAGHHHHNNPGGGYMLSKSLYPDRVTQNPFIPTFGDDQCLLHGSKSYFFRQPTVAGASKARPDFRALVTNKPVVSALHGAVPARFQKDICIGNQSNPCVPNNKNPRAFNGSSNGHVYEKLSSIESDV
T3 sequence (Q13224 27-1484, other chains not shown): as above
T2 sequence (Q12879 23-1464, other chains not shown): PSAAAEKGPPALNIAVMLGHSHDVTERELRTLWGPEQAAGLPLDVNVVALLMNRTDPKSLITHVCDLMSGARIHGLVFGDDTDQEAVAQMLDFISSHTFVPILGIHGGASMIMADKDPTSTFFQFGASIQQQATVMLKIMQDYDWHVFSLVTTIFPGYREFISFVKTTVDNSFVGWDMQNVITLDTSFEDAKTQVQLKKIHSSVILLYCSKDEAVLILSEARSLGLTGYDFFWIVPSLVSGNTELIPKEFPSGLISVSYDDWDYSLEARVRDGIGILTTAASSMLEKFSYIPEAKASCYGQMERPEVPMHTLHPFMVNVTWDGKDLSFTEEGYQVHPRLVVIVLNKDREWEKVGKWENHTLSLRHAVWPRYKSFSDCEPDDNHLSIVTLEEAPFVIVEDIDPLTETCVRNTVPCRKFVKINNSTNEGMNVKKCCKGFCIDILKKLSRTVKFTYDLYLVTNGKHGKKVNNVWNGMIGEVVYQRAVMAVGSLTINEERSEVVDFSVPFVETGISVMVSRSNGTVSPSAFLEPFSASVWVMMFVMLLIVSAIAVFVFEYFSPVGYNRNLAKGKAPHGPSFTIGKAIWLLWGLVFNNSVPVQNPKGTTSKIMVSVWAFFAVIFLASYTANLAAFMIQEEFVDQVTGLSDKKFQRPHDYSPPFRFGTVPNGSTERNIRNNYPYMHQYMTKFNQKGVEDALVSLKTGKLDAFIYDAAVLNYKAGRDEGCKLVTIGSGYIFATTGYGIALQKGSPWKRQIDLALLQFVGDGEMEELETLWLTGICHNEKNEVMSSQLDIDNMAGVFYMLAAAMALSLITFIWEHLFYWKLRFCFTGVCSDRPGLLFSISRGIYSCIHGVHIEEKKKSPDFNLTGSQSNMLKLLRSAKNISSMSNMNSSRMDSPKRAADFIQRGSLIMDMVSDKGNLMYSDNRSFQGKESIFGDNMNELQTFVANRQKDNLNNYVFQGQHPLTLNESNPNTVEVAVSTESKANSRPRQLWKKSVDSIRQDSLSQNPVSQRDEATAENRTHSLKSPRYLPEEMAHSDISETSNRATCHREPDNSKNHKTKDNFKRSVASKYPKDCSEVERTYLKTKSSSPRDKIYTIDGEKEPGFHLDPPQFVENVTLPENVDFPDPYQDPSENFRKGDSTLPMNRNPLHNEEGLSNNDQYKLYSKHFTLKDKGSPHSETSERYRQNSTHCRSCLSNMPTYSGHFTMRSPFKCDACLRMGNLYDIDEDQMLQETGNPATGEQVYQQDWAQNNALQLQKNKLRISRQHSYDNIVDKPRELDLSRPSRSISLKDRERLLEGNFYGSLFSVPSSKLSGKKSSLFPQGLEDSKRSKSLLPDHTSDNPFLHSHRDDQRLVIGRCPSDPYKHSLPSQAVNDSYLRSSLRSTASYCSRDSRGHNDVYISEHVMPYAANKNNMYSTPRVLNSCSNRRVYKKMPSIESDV

| SMILES | Emax [1] [%] | NMDAR2A B: log EC50 [2] | Emax [3] [%] | NMDAR2B B: log EC50 [4] | EC50 [1] [nM] | NMDAR2A A: % maximal [3H]MK-801 binding relative to 1 mM glycine [2] | NMDAR2B A: % maximal [3H]MK-801 binding relative to 1 mM glycine [4] | EC50 [3] [nM] | other results |
| --- | --- | --- | --- | --- | --- | --- | --- | --- | --- |
| CCN1CCC2(CC1=O)CN(Cc1ccc(OC)cc1)C2=O (stereo not drawn) [CK, 7-ethyl-2-(4-methoxybenzyl)-2,7-diazaspiro[3.5]nonane-1,6-dione] | 0 | − | 0 | − |  |  |  |  |  |
| CC1CC(=O)N(c2ccc(F)cc2)C12CN(CC(N)=O)C2=O (stereo not drawn) [CE, 2-(5-(4-fluorophenyl)-8-methyl-1,6-dioxo-2,5-diazaspiro[3.4]octan-2-yl)acetamide] | 0 | − | 0 | − |  |  |  |  |  |
| COc1ccc(CN2CC3(CCNC(=S)C3)C2=O)cc1 (single isomer, unassigned) [CM, 2-(4-methoxybenzyl)-6-thioxo-2,7-diazaspiro[3.5]nonan-1-one] | 0 | − | 0 | − |  |  |  |  |  |
| C[C@@H](O)[C@@H](C(=O)N(C)C)N1CC2(CCNC(=O)C2)C1=O (single isomer, unassigned) [CD] |  |  |  |  | < 1 | + (<100%=+) | + (<100%=+) |  | EC50 [4]: < 1 nM |
| O=C1CC2(CCN1)CN(Cc1ccccc1)C2=O (single isomer, unassigned) [CV, 2-benzyl-2,7-diazaspiro[3.5]nonane-1,6-dione] |  |  |  |  | < 1 | + (<100%=+) | + (<100%=+) |  | EC50 [4]: < 1 nM |
| C[C@@H](O)[C@@H](C(=O)NCc1ccccc1)N1CC2(CCNC(=O)C2)C1=O (single isomer, unassigned) [CB] | 0 | − | < 100 |  |  |  |  | < 1 | AUC(0-t) (IV pharmacokinetics): 1320 ng·h/mL; C0 (IV pharmacokinetics): 4320 ng/mL; clearance (IV pharmacokinetics): 25.3 mL/min/kg; half-life (IV pharmacokinetics): 106 min; Vd (IV pharmacokinetics): 1.2 L/kg; AUC(0-t) [5]: 297 ng·h/mL; bioavailability [5]: 5%; Tmax [5]: 30 min; Cmax [5]: 143 ng/mL; CSF Cmax [5]: 31.02 ng/mL; Brain Cmax [5]: 7.38 ng/mL |
| CN1CC2(CCNC(=O)C2)C1=O (single isomer, unassigned) [DH, 2-methyl-2,7-diazaspiro[3.5]nonane-1,6-dione] |  |  |  |  |  | + (<100%=+) | ++ (>100%=++) | < 1 | EC50 [2]: < 1 nM |
| C[C@@H](O)[C@@H](C(=O)N(C)C)N1CC2(CCNC(=O)C2)C1=O (single isomer, unassigned) [CC] |  | − | < 100 |  |  | − (−=0) |  | < 1 | AUC(0-t) (IV pharmacokinetics): 2130 ng·h/mL; C0 (IV pharmacokinetics): 7930 ng/mL; clearance (IV pharmacokinetics): 15.7 mL/min/kg; half-life (IV pharmacokinetics): 127 min; Vd (IV pharmacokinetics): 0.5 L/kg; AUC(0-t) [5]: 701 ng·h/mL; bioavailability [5]: 7%; Tmax [5]: 25.2 min; Cmax [5]: 191 ng/mL; CSF Cmax [5]: 0 ng/mL; Brain Cmax [5]: 0 ng/mL |
| CC1CC(=O)N(c2ccc(F)cc2)C12CN([C@H](C(N)=O)[C@@H](C)O)C2=O (single isomer, unassigned) [DL] |  |  |  | − | < 1 | + (<100%=+) | − (−=0) |  |  |
| COc1ccc(CN2CC3(CCNC(=S)C3)C2=S)cc1 (single isomer, unassigned) [CP, 2-(4-methoxybenzyl)-2,7-diazaspiro[3.5]nonane-1,6-dithione] |  |  |  |  |  | + (<100%=+) | + (<100%=+) | < 1 | EC50 [2]: < 1 nM |
| C[C@@H](O)[C@@H](C(=O)NCc1ccccc1)N1CC2(CCNC(=O)C2)C1=O (stereo partly drawn) [CA, (2S,3R)—N-benzyl-2-(1,6-dioxo-2,7-diazaspiro[3.5]nonan-2-yl)-3-hydroxybutanamide] | 0 | − | 0 | − |  |  |  |  |  |
| COc1ccc(CN2CC3(CCN(C)C(=O)C3)C2=O)cc1 (single isomer, unassigned) [CI, 2-(4-methoxybenzyl)-7-methyl-2,7-diazaspiro[3.5]nonane-1,6-dione] | < 100 |  | < 100 |  | < 1 |  |  | < 1 | AUC(0-t) (IV pharmacokinetics): 1040 ng·h/mL; C0 (IV pharmacokinetics): 2120 ng/mL; clearance (IV pharmacokinetics): 32 mL/min/kg; half-life (IV pharmacokinetics): 25.2 min; Vd (IV pharmacokinetics): 0.91 L/kg; AUC(0-t) [5]: 5060 ng·h/mL; bioavailability [5]: 97%; Tmax [5]: 15 min; Cmax [5]: 5050 ng/mL; CSF Cmax [5]: 1113.94 ng/mL; Brain Cmax [5]: 996.66 ng/mL |
| CC1C(N)C(=O)N(C)C12CN(Cc1ccccc1)C2=O (stereo not drawn) [CH, 7-amino-2-benzyl-5,8-dimethyl-2,5-diazaspiro[3.4]octane-1,6-dione] | 0 | − | 0 | − |  |  |  |  |  |
| CNC(=O)[C@H]([C@@H](C)O)N1CC2(CCNC(=O)C2)C1=O (stereo partly drawn) [DA, (2S,3R)-2-(1,6-dioxo-2,7-diazaspiro[3.5]nonan-2-yl)-3-hydroxy-N-methylbutanamide] | 0 | − | 0 | − |  |  |  |  |  |
| CCN1CCC2(CC1=O)CN(Cc1ccc(OC)cc1)C2=O (single isomer, unassigned) [CL, 7-ethyl-2-(4-methoxybenzyl)-2,7-diazaspiro[3.5]nonane-1,6-dione] | < 100 |  | < 100 |  | < 1 |  |  | < 1 | AUC(0-t) (IV pharmacokinetics): 772 ng·h/mL; C0 (IV pharmacokinetics): 2690 ng/mL; clearance (IV pharmacokinetics): 41.7 mL/min/kg; half-life (IV pharmacokinetics): 12.6 min; Vd (IV pharmacokinetics): 0.7 L/kg; AUC(0-t) [5]: 1430 ng·h/mL; bioavailability [5]: 37%; Tmax [5]: 15 min; Cmax [5]: 1800 ng/mL; CSF Cmax [5]: 866.42 ng/mL; Brain Cmax [5]: 707.6 ng/mL |
| CC1CC(=O)N(c2ccc(F)cc2)C12CN(Cc1ccccc1)C2=O (stereo not drawn) [BY, 2-benzyl-5-(4-fluorophenyl)-8-methyl-2,5-diazaspiro[3.4]octane-1,6-dione] | 0 | − | 0 | − |  |  |  |  |  |

— patent US12084444B2, “Spiro-lactam NMDA modulators and methods of using same” (Tenacia Biotechnology (Hong Kong) Co., Limited, priority 2016, dated 2024)
